For test [1], the target named is T1, TRPM2 (Homo sapiens, UniProt O94759). The test can be described thus: whole-cell patch clamp. In kind it is cell-based. (In general: In patch-clamp work, channel activity is measured electrically.)
For test [2], the target named is T1, TRPM2. The test can be described thus: whole-cell patch clamp, HEK293 expressing hTRPM2. In kind it is cell-based.

T1 sequence (O94759 whole entry): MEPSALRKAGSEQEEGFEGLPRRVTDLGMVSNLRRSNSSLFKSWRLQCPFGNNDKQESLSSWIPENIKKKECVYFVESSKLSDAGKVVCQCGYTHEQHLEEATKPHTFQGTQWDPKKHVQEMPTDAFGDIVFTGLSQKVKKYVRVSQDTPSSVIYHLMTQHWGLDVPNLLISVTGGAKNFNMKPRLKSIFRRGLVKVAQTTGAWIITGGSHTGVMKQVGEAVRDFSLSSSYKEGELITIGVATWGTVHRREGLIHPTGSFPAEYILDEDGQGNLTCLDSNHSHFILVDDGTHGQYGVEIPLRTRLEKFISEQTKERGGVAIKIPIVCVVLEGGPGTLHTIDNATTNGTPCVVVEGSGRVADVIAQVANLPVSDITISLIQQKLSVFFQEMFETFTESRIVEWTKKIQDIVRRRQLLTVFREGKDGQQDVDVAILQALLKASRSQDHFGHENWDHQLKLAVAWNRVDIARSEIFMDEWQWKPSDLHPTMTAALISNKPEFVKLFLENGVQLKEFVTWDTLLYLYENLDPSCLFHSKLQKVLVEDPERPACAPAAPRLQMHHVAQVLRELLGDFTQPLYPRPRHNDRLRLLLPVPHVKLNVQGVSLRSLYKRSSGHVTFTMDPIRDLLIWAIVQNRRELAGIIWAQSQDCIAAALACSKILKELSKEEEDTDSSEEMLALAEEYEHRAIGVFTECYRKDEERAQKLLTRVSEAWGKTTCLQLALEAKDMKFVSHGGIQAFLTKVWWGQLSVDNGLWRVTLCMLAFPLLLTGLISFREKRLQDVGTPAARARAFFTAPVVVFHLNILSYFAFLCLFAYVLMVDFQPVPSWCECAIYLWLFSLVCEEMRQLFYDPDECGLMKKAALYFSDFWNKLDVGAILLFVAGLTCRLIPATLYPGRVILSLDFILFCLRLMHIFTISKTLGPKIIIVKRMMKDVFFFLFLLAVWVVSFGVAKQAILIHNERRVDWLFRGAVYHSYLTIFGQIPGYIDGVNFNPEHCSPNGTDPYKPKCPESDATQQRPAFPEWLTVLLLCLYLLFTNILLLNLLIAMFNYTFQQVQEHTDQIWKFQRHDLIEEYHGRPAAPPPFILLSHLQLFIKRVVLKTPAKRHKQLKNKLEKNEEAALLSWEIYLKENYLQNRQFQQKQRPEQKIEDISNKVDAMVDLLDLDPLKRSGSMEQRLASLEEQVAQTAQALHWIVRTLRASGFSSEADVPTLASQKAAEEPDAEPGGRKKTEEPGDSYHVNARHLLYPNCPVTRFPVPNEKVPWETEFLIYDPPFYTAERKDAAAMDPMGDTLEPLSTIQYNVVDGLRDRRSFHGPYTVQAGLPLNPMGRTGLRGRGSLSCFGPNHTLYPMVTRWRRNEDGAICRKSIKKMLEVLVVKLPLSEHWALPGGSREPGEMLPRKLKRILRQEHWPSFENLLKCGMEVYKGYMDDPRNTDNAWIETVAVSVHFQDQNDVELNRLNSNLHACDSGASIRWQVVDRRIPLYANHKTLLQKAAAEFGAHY

For `Nc1ncnc2c1ncn2[C@@H]1O[C@H](COP(=O)(O)OP(=O)(O)OC[C@H]2OC(O)[C@H](O)[C@@H]2O)[C@@H](O)[C@H]1O` (stereo partly drawn) [compound 1, ADPR], the EC50 on TRPM2 [1] stood at 28 µM.

With `Nc1ncnc2c1ncn2[C@@H]1O[C@H](COP(=O)(O)OP(=O)(O)OC[C@H]2OC(O)[C@H](O)[C@@H]2O)C[C@H]1O` (stereo partly drawn) [compound 17, 3′-deoxy-ADPR], at TRPM2 [2], the EC50 is 46 µM.

`Nc1ncnc2c1ncn2[C@@H]1O[C@H](COP(=O)(O)OP(=O)(O)OC[C@H]2OC(O)[C@H](O)[C@@H]2O)[C@@H](O)[C@H]1OP(=O)(O)O` (stereo partly drawn) [compound 15, 2′-phospho-ADPR]: the EC50 at TRPM2 [2] is 110 µM.

As usually defined, the EC50 is the midpoint of the concentration-response curve. Lower therefore signals higher potency in that assay.

These data come from publication PMC5563452 (Nature chemical biology, 2017).
